Paper PMC9714824, “Hexapeptides from mammalian inhibitory hormone hunt activate and inactivate nematode reproduction” (PLOS ONE, 2022)

Experiments:
PNT2 cells = assay: MTS colorimetric viable cell assay, PNT2; assay type: cell-based, human; conditions: 30 μM, 27h, 492 nm, triplicate
Procedure, shortened: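 Cells seeded at 8,000/well, given peptides (14mer to 6mer) at 30 μM final at the outset, triplicate, buffer controls; viable cells by MTS absorbance at 492 nm after 27 h growth. Data as OD mean ± SEM, two-tailed t-test; a 14mer time course on PC3 read at 24 and 48 h.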

LNCaP cells = assay: MTS viable cell assay, LNCaP (Epistem); assay type: cell-based, human; conditions: over 72h, single dose level
Protocol: Further assays on human prostate cancer cells were conducted at a contract research organisation (Epistem, Manchester, UK). LNCaP or DU145 cells seeded at 3,000 cells/well across a 96-well plate were cultured in RPMI (phenol red free), 10% FCS, 1% sodium pyruvate, Pen/strep and L-glutamine for 24h before exposure to peptides, at a single dose level in the case of LNCaPs or multiple dose levels in the case of DU145s. (For dose levels see Results.) Controls received vehicle (1% PBS). For the DU145s peptide administration was repeated after 24h. 72h after the first administration (DU145s) or only administration (LNCaP) total viable cell numbers were measured colorimetrically (MTS) using a CellTiter 96 AQueous One Solution Cell Proliferation Assay (Promega, Southampton, UK), following manufacturer’s instructions. Briefly, the media on the plates was replaced with the CellTiter reagent diluted 1:5 in DMEM. The plates were returned to the incubator for 3 hours before reading absorbance at 492 nm on a FLUORstar OPTIMA (BMG Labtech). CellTiter data are the absorbance minus background values (CellTiter plus DMEM), expressed as (OD mean +/− SEM). Statistical analysis was by ANOVA, Dunnett’s multiple comparisons test.

DU145 cells = assay: MTS viable cell assay, DU145 (Epistem); assay type: cell-based, human; conditions: DU145; 150 μM (highest concentration); 72h
Procedure, shortened: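 DU145 or LNCaP cells, 3,000/well in RPMI with 10% FCS, grown 24 h, then peptide added: multiple dose levels, repeated after 24 h, for DU145; single dose level, once, for LNCaP; vehicle 1% PBS. MTS absorbance 492 nm at 72 h after first dose, background-subtracted OD mean±SEM; ANOVA with Dunnett's test.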

[1] = system: MCF 7 human breast cancer cells; conditions: in words; EPL120 over 72h, dose range 0.04 nM– 4 μM; cited from earlier work
[2] = system: compensatory renal growth; conditions: in words; cited from earlier work
Protocol: The 14-residue N-terminal Edman sequence EPL001 was determined in the context of a polypeptide candidate of m/z ~7,500 (‘Candidate 7500’) in MALDI-TOF mass spectrometry (MS) and a corresponding band in SDS polyacrylamide gel electrophoresis, implying a chain of ~70 aa for the native molecule. In spite of comprising only 20% of Candidate 7500, EPL001 surpris ...

hMSCs = system: hMSCs; design: method as in earlier work; conditions: EPL001 0.15µM or EPL140 15µM, three days; cited from earlier work
[3] = system: hDPSC (Human Dental Pulp Derived Mesenchymal-Like Stem/Progenitor Cells); design: method as in earlier work; conditions: EPL001 0.15µM or EPL140 15µM, three days; cited from earlier work

With “MKPLTGKVKEFNNI [EPL001, 14mer master test peptide …; ovine provenance]” the “Difference in percentage terms between control and test OD means” value (PNT2 cells) was “+3.1%”, the “Reduction in test mean OD versus the vehicle control mean” value (LNCaP cells) was -17.0% and the “Test mean OD vs control mean” value (DU145 cells) was −16.5%. For the same sequence, the “Inhibition of IGF-1 stimulated growth in MCF-7 cell numbers” value [1] was “inhibits the proliferation”, the “Effect on rat compensatory renal growth” value [2] was “anti-organotrophic” and the Bmal1 expression (hMSCs) was “↑↑”. The OCN expression (hMSCs) was “↓”, the PPARγ expression (hMSCs) was “↓” and the Per2 expression (hMSCs) was “↓”. For the same sequence, the Sox9 expression (hMSCs) was “↓”, the Bmal1 expression [3] was “↑” and the OCN expression [3] was “↓↓”. For the same sequence, the PPARγ expression [3] was “↓↓”, the Per2 expression [3] was “↑” and the Rev-ErbA expression [3] was “↓”. For the same sequence, the Sox9 expression [3] was “(↓)”.
